According to PubChem BioAssay (NCI):
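Cells were grown in 96-well plates and exposed to each compound for 48 hours at five concentrations; endpoints were interpolated linearly between bracketing concentrations, or set to the highest concentration if not reached. GI50 is the concentration that inhibits growth by half. The concentration for full growth arrest is given as TGI.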

What was measured:
Assay in all cases: inhibition of tumour cell growth, NCI panel, 48 h
MDA-MB-231 breast = tested on: MDA-MB-231 breast
SF-539 CNS = tested on: SF-539 CNS
OVCAR-5 ovarian = tested on: OVCAR-5 ovarian
A549 NSCLC = tested on: A549 NSCLC
IGROV1 ovarian = tested on: IGROV1 ovarian
UACC-62 melanoma = tested on: UACC-62 melanoma
OVCAR-3 ovarian = tested on: OVCAR-3 ovarian
SK-MEL-28 melanoma = tested on: SK-MEL-28 melanoma
MDA-MB-435 = tested on: MDA-MB-435
MALME-3M melanoma = tested on: MALME-3M melanoma

Structure (SMILES) | GI50 (MDA-MB-231 breast) [µM] | TGI (MDA-MB-231 breast) [µM] | GI50 (SF-539 CNS) [µM] | TGI (SF-539 CNS) [µM] | GI50 (OVCAR-5 ovarian) [µM] | TGI (OVCAR-5 ovarian) [µM] | GI50 (A549 NSCLC) [µM] | TGI (A549 NSCLC) [µM] | GI50 (IGROV1 ovarian) [µM] | TGI (IGROV1 ovarian) [µM] | GI50 (UACC-62 melanoma) [µM] | TGI (UACC-62 melanoma) [µM] | GI50 (OVCAR-3 ovarian) [µM] | TGI (OVCAR-3 ovarian) [µM] | GI50 (SK-MEL-28 melanoma) [µM] | TGI (SK-MEL-28 melanoma) [µM] | GI50 (MDA-MB-435) [µM] | TGI (MDA-MB-435) [µM] | GI50 (MALME-3M melanoma) [µM] | TGI (MALME-3M melanoma) [µM]
CC/C(=C(/c1ccc(OCCN(C)C)cc1)c1ccc(OC(=O)CCCCCCCCC(=O)c2c(C)[nH]c(/C=C3\N=C(c4ccc[nH]4)C=C3OC)c2C)cc1)c1ccccc1 | 3.4 | 18.1 | 10.7 | 61.6 | > 100 | > 100 | 4.13 | > 100 | 23.1 | > 100 | 3.37 | 18.1 | 10.9 | > 100 | 43.9 | > 100 | 4.63 | > 100 | 40.7 | > 100
COc1c(B(O)O)cccc1-c1nc2c(F)cc3n[nH]c(C)c3c2c2c1CCCC2 | 0.0412 | > 50 | 0.212 | 2.97 | 1.08 | > 50 | 1.13 | > 50 | 1.12 | > 50 | 1.55 | 8.39 | 1.48 | > 50 | 2.1 | > 38.8 | 1.86 | > 50 | 2.5 | 7.73
Cc1cc(C)c2c(c1)N(C)c1ncnc(-n3cnc4cc(C)ccc43)c1CC2C (stereo not given) | 3.03 | 14.6 | 2.74 | 9.16 | 5.52 | 24.4 | 4.03 | 56.9 | 5.46 | > 100 | 3.13 | 18.4 | 3.32 | 14.7 | 5.61 | 20.7 | 2.44 | 10.6 | 3.61 | 17.3
C[C@]12CC[C@@H]3c4ccc(OC(=O)N(CCCl)CCCl)cc4CC[C@H]3[C@@H]1CC[C@@H]2OP(=O)(O)O | 26.8 | > 64.3 | 22.3 | > 58.1 | > 62.7 | > 100 | 48.8 | > 100 | > 100 | > 100 | 22.9 | > 72.5 | 46.7 | > 95.2 | 37.3 | > 100 | 15.6 | 50.4 | 83.5 | > 100
O=C(CN1CCN(C(=O)c2ccco2)CC1)Nc1ccc(Cl)cc1C(=O)c1ccccc1Cl | 9.51 | 46.1 | 13.6 | 26.9 | 24 | 63 | 5.61 | 39.4 | 4.23 | 17.6 | 8.85 | 23.4 | 5.53 | 17.5 | 11.6 | 23.9 | 5.83 | 20.6 | 7 | 22.2
NC(=O)c1csc(-c2ccc(CO)o2)n1 | – | > 100 | – | > 100 | – | > 100 | – | > 100 | – | > 100 | – | > 100 | – | > 100 | – | > 100 | – | > 100 | – | > 100
